The values that follow come from ChEMBL document CHEMBL1125635, “Effect of hydroxyl group configuration in hydroxyethylamine dipeptide isosteres on HIV protease inhibition. Evidence for multiple binding modes” (J Med Chem, 1991).

Molecules are shown by their SMILES.

Test [1] has as its target T1, Human immunodeficiency virus type 1 protease (Human immunodeficiency virus 1, UniProt Q72874). As to the kind of experiment: In vitro concentration required to inhibit 50% activity of HIV protease was measured. The class given is functional.
Test [2] has as its target T1, Human immunodeficiency virus type 1 protease. As to the kind of experiment: In vitro binding affinity against HIV protease was measured.
The target is the same in test [3]. As to the kind of experiment: In vitro concentration required to inhibit 50% activity of HIV protease was measured (exp 2). The test is classed as functional.

For orientation: IC50 means the concentration needed to halve the response being measured. Read a low IC50 as greater potency in that assay. Take `CC[C@H](C)[C@H](NC(=O)[C@@H]1CCCN1C[C@H](O)[C@H](Cc1ccccc1)NC(=O)[C@H](CC(N)=O)NC(=O)OCc1ccccc1)C(=O)N[C@@H](Cc1ccccc1)C(=O)OC`: in test [1], the IC50 is 4 nM.

A word on the Ki: it is the equilibrium dissociation constant of an inhibitor or competing ligand from its target. A low value points to a stronger hold on the target. In the case of `CC[C@H](C)[C@H](NC(=O)[C@@H]1CCCN1C[C@H](O)[C@H](Cc1ccccc1)NC(=O)[C@H](CC(N)=O)NC(=O)[C@H](CC(C)C)NC(=O)[C@H](CO)NC(C)=O)C(=O)N[C@H](C(=O)OC)C(C)C` (stereo in doubt; 1R), half-maximal inhibition in test [1] (IC50) required 65 nM. This compound showed a Ki in test [2] of 20 nM.

For the compound `CC(C)(C)OC(=O)[C@@H]1CCCN1C[C@@H](O)[C@H](Cc1ccccc1)NC(=O)[C@H](CC(N)=O)NC(=O)OCc1ccccc1`, the half-maximal inhibitory concentration (IC50) in test [1] amounted to 450 nM; in test [3], 300 nM.

Compound `CC[C@H](C)[C@H](NC(=O)[C@@H]1CCCN1C[C@H](O)[C@H](Cc1ccccc1)NC(=O)[C@H](CC(N)=O)NC(=O)[C@H](CC(C)C)NC(=O)[C@H](CO)NC(C)=O)C(=O)N[C@H](C(=O)OC)C(C)C` (stereo in doubt; 1S) yielded an IC50 in test [1] of 3.4 nM. Moreover, in test [2], affinity was put at a Ki of 0.24 nM.

In test [1], `CC[C@H](C)[C@H](NC(=O)[C@@H]1CCCN1C[C@@H](O)[C@H](Cc1ccccc1)NC(=O)[C@H](CC(N)=O)NC(=O)OC(C)(C)C)C(=O)N[C@H](C(=O)OC)C(C)C` had an IC50 of 850 nM. This counts as sub-micromolar.

In the case of `CC[C@H](C)[C@H](NC(=O)[C@@H]1CCCN1C[C@H](O)[C@H](Cc1ccccc1)NC(=O)[C@H](CC(N)=O)NC(=O)OC(C)(C)C)C(=O)N[C@H](C(=O)OC)C(C)C`, in test [1], the IC50 came to 16 nM.

`CC(=O)N[C@@H](CO)C(=O)N[C@@H](CC(C)C)C(=O)N[C@@H](CC(N)=O)C(=O)N[C@@H](Cc1ccccc1)[C@@H](O)CN1CCC[C@H]1C(=O)OC(C)(C)C` showed a half-inhibitory concentration (IC50) in test [1] of 14 nM.

`CC(C)(C)OC(=O)[C@@H]1CCCN1C[C@H](O)[C@H](Cc1ccccc1)NC(=O)[C@H](CC(N)=O)NC(=O)OCc1ccccc1`: the half-maximal inhibitory concentration (IC50) in test [1] is 51 nM; in test [3], 140 nM.

`CC(=O)N[C@@H](CO)C(=O)N[C@@H](CC(C)C)C(=O)N[C@@H](CC(N)=O)C(=O)N[C@@H](Cc1ccccc1)[C@H](O)CN1CCC[C@H]1C(=O)OC(C)(C)C` showed a half-maximal inhibitory concentration (IC50) in test [1] of 14 nM.

In test [1], `CC[C@H](C)[C@H](NC(=O)[C@@H]1CCCN1C[C@H](O)[C@H](Cc1ccccc1)NC(=O)[C@H](CC(N)=O)NC(=O)c1ccc2ccccc2n1)C(=O)N[C@@H](Cc1ccccc1)C(=O)OC` gave an IC50 of 2.3 nM.

Turning to `CC[C@H](C)[C@H](NC(=O)[C@@H]1CCCN1CC(O)[C@H](Cc1ccccc1)NC(=O)[C@H](CC(N)=O)NC(=O)[C@H](CC(C)C)NC(=O)[C@H](CO)NC(C)=O)C(=O)N[C@H](C(=O)OC)C(C)C` (mixture of isomers), in test [1], the half-maximal inhibitory concentration (IC50) was 9 nM. In test [2], this compound came in with an inhibitory constant (Ki) of 0.6 nM.
